# Source: patent publication US8471005B2 (Cephalon, Inc., priority 2008, dated 2013)
# Where two headings read alike, the source gives them in different places.
# How the values were obtained:
# ALK = molecular target: T1, ALK (Homo sapiens, UniProt Q9UM73); experiment: ALK Kinase Assay (ELISA/TRF, PLC-γ substrate); format: biochemical; conditions: read-out: ALK Potency
# T1 construct: host or cells: baculovirus expression system
# Procedure, shortened: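 IC50 values derive from percent inhibition plotted against log10 compound concentration and fitted to a variable-slope sigmoidal equation. The underlying reaction used 30 ng/ml ALK acting on immobilized PLC-γ (10 μg/mL in TBS) at 37° C for 15 minutes, read with Eu-N1 PT66 antibody.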
# JAK2 = molecular target: T2, JAK2 (Homo sapiens, UniProt O60674); experiment: Recombinant Human JAK2 Kinase Assay (TRF); format: biochemical; conditions: read-out: JAK2 Potency
# T2 construct: host or cells: baculovirus expression system
# T2 sequence (O60674 whole entry): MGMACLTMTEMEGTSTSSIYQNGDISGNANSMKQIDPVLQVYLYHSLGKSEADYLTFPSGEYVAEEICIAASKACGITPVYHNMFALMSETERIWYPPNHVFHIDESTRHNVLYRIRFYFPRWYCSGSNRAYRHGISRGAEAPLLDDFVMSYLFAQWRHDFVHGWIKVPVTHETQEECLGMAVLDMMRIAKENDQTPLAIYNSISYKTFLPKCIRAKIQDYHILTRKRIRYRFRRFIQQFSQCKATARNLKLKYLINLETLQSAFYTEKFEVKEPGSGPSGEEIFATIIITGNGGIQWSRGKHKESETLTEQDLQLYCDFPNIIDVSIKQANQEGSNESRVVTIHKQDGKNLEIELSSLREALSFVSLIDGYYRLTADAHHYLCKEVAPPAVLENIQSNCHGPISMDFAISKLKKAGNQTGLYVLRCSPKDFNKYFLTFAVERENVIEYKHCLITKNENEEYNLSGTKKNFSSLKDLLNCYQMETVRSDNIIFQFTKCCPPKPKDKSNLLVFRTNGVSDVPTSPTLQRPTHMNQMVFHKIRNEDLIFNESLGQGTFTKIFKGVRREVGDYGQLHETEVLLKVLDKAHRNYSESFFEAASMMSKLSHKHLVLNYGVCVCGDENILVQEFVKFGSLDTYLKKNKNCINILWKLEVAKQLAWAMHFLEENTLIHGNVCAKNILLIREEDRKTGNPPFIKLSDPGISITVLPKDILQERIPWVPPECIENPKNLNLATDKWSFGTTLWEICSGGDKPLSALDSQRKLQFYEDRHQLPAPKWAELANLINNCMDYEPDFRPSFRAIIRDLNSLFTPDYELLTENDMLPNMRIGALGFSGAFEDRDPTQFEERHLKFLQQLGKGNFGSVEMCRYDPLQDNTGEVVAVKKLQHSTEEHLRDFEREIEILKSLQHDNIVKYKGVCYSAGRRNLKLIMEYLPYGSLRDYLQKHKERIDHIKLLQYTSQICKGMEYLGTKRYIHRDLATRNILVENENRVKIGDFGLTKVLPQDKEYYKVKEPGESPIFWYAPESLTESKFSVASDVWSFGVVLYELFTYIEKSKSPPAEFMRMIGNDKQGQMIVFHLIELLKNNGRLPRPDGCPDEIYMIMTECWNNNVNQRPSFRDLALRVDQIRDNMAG
# Procedure, shortened: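 Baculovirus-expressed JAK2 (15 ng/ml) phosphorylated a biotinylated 15-mer peptide captured on Neutravidin, in 20 mM HEPES pH 7.2, 0.2 μM ATP, 1 mM MnCl2, 0.1% BSA, 2.5% DMSO final, 20 min at room temperature. Phosphoproduct detected by time-resolved fluorescence with Eu-N1-labelled PY100 antibody.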
# [1] = ALK kinase inhibition, 1 μM ATP
# [2] = JAK2 kinase inhibition, 0.2 μM ATP
# T1 sequence (Q9UM73 19-1620): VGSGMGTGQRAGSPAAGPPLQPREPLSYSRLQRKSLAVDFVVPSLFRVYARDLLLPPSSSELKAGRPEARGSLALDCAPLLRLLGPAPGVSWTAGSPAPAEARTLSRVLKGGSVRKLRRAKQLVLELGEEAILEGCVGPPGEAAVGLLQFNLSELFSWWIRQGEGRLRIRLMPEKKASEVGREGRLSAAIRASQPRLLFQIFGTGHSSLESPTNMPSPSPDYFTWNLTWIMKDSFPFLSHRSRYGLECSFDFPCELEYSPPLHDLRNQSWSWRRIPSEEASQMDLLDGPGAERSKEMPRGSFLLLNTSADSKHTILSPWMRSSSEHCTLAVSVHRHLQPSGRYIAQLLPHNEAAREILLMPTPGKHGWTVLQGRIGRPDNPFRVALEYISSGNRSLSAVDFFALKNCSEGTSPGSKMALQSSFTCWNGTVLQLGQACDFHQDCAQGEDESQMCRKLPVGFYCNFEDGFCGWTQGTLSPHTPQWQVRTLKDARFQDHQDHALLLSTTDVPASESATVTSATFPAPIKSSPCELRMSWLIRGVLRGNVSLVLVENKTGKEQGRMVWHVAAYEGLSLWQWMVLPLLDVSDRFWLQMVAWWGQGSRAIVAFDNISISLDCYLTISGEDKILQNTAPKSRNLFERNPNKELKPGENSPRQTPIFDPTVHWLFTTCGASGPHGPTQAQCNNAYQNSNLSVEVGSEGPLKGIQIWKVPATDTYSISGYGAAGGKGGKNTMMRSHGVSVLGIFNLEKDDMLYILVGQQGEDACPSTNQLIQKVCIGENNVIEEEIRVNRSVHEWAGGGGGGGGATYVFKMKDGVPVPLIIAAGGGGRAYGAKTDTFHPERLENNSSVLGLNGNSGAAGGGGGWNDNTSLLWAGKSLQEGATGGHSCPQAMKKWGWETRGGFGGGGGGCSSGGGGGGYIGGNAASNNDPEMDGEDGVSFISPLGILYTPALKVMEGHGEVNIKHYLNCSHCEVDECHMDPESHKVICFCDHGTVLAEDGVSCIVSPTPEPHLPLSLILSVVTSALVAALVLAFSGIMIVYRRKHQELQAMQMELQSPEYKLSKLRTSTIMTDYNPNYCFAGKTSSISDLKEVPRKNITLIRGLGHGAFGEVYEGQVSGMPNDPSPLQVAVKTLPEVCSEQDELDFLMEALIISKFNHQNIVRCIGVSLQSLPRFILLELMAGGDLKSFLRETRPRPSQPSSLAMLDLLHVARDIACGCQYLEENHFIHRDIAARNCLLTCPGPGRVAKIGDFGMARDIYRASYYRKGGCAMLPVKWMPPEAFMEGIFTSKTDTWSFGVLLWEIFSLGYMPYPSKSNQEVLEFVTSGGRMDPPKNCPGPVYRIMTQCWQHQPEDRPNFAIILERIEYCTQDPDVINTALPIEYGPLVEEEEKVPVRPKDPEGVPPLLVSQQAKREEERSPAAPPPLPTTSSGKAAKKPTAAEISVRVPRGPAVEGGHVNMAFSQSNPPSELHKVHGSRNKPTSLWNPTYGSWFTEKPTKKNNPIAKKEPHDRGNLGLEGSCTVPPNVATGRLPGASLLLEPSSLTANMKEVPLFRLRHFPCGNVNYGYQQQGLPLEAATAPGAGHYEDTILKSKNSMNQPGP
SMILES,IC50 (ALK; ALK Kinase Inhibition) [µM],IC50 (JAK2; JAK2 Kinase Inhibition) [µM],IC50 (ALK; [1]) [µM],IC50 (JAK2; [2]) [µM]
"COc1ccccc1-c1ccc2cnc(C(N)=O)nn12 [Example 1495, 7-(2-Methoxy-phenyl)-pyrrolo[2,1-f][1,2,4]triazine-2-carboxylic acid amide]",> 10,> 10,–,–
"COc1ccc(-c2ccc3cnc(Nc4ccc5nc(C(F)(F)F)[nH]c5c4)nn23)cn1 [Example 1308, [7-(6-Methoxy-pyridin-3-yl)-pyrrolo[2,1-f][1,2,4]triazin-2-yl]-(2-trifluoromethyl-3H-benzimidazol-5-yl)-amine]",–,–,> 10,< 0.1
"c1cc(Sc2ccc3cnc(Nc4ccc(N5CCOCC5)cc4)nn23)ccn1 [Example 1116, (4-Morpholin-4-yl-phenyl)-[7-(pyridin-4-ylsulfanyl)-pyrrolo[2,1-f][1,2,4]triazin-2-yl]-amine]",–,–,1 to 10,< 0.1
"COc1cc(C2CCN(CC(N)=O)CC2)ccc1Nc1ncc2c(C)cc(-c3ccccc3N(C)S(C)(=O)=O)n2n1 [Example 1255, 2-[4-(4-{7-[2-(Methanesulfonyl-methyl-amino)-phenyl]-5-methyl-pyrrolo[2,1-f][1,2,4]triazin-2-ylamino}-3-methoxy-phenyl)-piperidin-1-yl]-acetamide]",–,–,< 0.1,0.1 to 1
"CN(C)CC(=O)Nc1cccc(Nc2ncc3ccc(-c4cccc(S(=O)(=O)NC(C)(C)C)c4)n3n2)c1 [Example 897, N-{3-[7-(3-tert-Butylsulfamoyl-phenyl)-pyrrolo[2,1-f][1,2,4]triazin-2-ylamino]-phenyl}-2-dimethylamino-acetamide]",–,–,< 0.1,< 0.1
"CN1CCc2ccc(Nc3ncc4ccc(-c5cccc(S(=O)(=O)NC(C)(C)C)c5)n4n3)cc2C1 [Example 931, N-tert-Butyl-3-[2-(2-methyl-1,2,3,4-tetrahydro-isoquinolin-7-ylamino)-pyrrolo[2,1-f][1,2,4]triazin-7-yl]-benzenesulfonamide]",–,–,0.1 to 1,< 0.1
"COc1cc(N2CCC(N3CCOCC3)CC2)ccc1Nc1ncc2ccc(-c3ccccc3Cl)n2n1 [Example 1466, [7-(2-Chloro-phenyl)-pyrrolo[2,1-f][1,2,4]triazin-2-yl]-[2-methoxy-4-(4-morpholin-4-yl-piperidin-1-yl)-phenyl]-amine]",< 0.1,< 0.1,–,–
"COc1ccc(-c2ccc3cnc(Nc4ccc5c(c4)CN(CC(N)=O)CC5)nn23)cn1 [Example 986, 2-{7-[7-(6-Methoxy-pyridin-3-yl)-pyrrolo[2,1-f][1,2,4]triazin-2-ylamino]-3,4-dihydro-1H-isoquinolin-2-yl}-acetamide]",–,–,1 to 10,< 0.1
"COc1ccccc1-c1ccc2cnc(Nc3ccc4c(c3)N3CCC4CC3)nn12 [Example 764, (3,4-Dihydro-2H-1,4-ethano-quinolin-7-yl)-[7-(2-methoxy-phenyl)-pyrrolo[2,1-f][1,2,4]triazin-2-yl]-amine]",–,–,< 0.1,< 0.1
"CN1CCN(c2ccc(Nc3ncc4ccc(-c5ccc(C=O)cc5)n4n3)cc2)CC1 [Example 1203, 4-{2-[4-(4-Methyl-piperazin-1-yl)-phenylamino]-pyrrolo[2,1-f][1,2,4]triazin-7-yl}-benzaldehyde]",–,–,0.1 to 1,< 0.1
"CN1C(=O)COc2cc(Nc3ncc4ccc(-c5cccc(S(=O)(=O)NC(C)(C)C)c5)n4n3)ccc21 [Example 648, N-tert-Butyl-3-[2-(4-methyl-3-oxo-3,4-dihydro-2H-benzo[1,4]oxazin-7-ylamino)-pyrrolo[2,1-f][1,2,4]triazin-7-yl]-benzenesulfonamide]",–,–,0.1 to 1,< 0.1
"CS(=O)(=O)c1ccc(-c2ccc3cnc(Nc4ccc(C5CCNCC5)cc4)nn23)cc1 [Example 1571, [7-(4-Methanesulfonyl-phenyl)-pyrrolo[2,1-f][1,2,4]triazin-2-yl]-(4-piperidin-4-yl-phenyl)-amine]",0.1 to 1,< 0.1,–,–
"CN1CCN(C(=O)c2cccc(Nc3ncc4ccc(-c5cccc(Cl)c5)n4n3)c2)CC1 [Example 340, {3-[7-(3-Chloro-phenyl)-pyrrolo[2,1-f][1,2,4]triazin-2-ylamino]-phenyl}-(4-methyl-piperazin-1-yl)-methanone]",0.1 to 1,< 0.1,–,–
"CN(c1ccccc1-c1ccc2cnc(Nc3ccc4nc(CN5CCOCC5)[nH]c4c3)nn12)S(C)(=O)=O [Example 1517, N-Methyl-N-{2-[2-(2-morpholin-4-ylmethyl-3H-benzimidazol-5-ylamino)-pyrrolo[2,1-f][1,2,4]triazin-7-yl]-phenyl}-methanesulfonamide]",0.1 to 1,< 0.1,–,–
"CN1CCN(c2cccc(Nc3ncc4ccc(NCc5ccncc5)n4n3)c2)CC1 [Example 1167, N(2)-[3-(4-Methyl-piperazin-1-yl)-phenyl]-N(7)-pyridin-4-ylmethyl-pyrrolo[2,1-f][1,2,4]triazine-2,7-diamine]",–,–,> 10,0.1 to 1
"c1cncc(-c2ccc3cnc(Nc4ccn(CCN5CCOCC5)n4)nn23)c1 [Example 1184, [1-(2-Morpholin-4-yl-ethyl)-1H-pyrazol-3-yl]-(7-pyridin-3-yl-pyrrolo[2,1-f][1,2,4]triazin-2-yl)-amine]",–,–,> 10,< 0.1
"CCNC(=O)Nc1cccc(Nc2ncc3ccc(-c4ccc(OC)nc4)n3n2)c1 [Example 901, 1-Ethyl-3-{3-[7-(6-methoxy-pyridin-3-yl)-pyrrolo[2,1-f][1,2,4]triazin-2-ylamino]-phenyl}-urea]",–,–,> 10,< 0.1
"CNS(=O)(=O)c1cccc(-c2ccc3cnc(Nc4ccc(N5CCOCC5)cc4)nn23)c1 [Example 357, N-Methyl-3-[2-(4-morpholin-4-yl-phenylamino)-pyrrolo[2,1-f][1,2,4]triazin-7-yl]-benzenesulfonamide]",0.1 to 1,< 0.1,–,–
"COc1cc(C2CCNCC2O)ccc1Nc1ncc2ccc(-c3cccc4c3OCC4)n2n1 (stereo not drawn) [Example 718, 4-{4-[7-(2,3-Dihydro-benzofuran-7-yl)-pyrrolo[2,1-f][1,2,4]triazin-2-ylamino]-3-methoxy-phenyl}-piperidin-3-ol]",–,–,< 0.1,< 0.1
"COc1cc(C2CCN(CC(N)=O)CC2)ccc1Nc1ncc2ccc(-c3cccnc3N(C)S(C)(=O)=O)n2n1 [Example 1257, 2-[4-(4-{7-[2-(Methanesulfonyl-methyl-amino)-pyridin-3-yl]-pyrrolo[2,1-f][1,2,4]triazin-2-ylamino}-3-methoxy-phenyl)-piperidin-1-yl]-acetamide]",–,–,< 0.1,1 to 10
"OCc1cccc(-c2ccc3cnc(Nc4cccc(N5CCOCC5)c4)nn23)c1 [Example 1561, {3-[2-(3-Morpholin-4-yl-phenylamino)-pyrrolo[2,1-f][1,2,4]triazin-7-yl]-phenyl}-methanol]",1 to 10,< 0.1,–,–
"CN1CCN(c2ccc(Nc3ncc4ccc(-c5cncc(CNCCS(C)(=O)=O)c5)n4n3)cc2)CC1 [Example 1198, (7-{5-[(2-Methanesulfonyl-ethylamino)-methyl]-pyridin-3-yl}-pyrrolo[2,1-f][1,2,4]triazin-2-yl)-[4-(4-methyl-piperazin-1-yl)-phenyl]-amine]",–,–,1 to 10,< 0.1
"N#Cc1ccccc1-c1ccc2cnc(Nc3ccc(C4CCN(CC(N)=O)CC4)cc3)nn12 [Example 513, 2-(4-{4-[7-(2-Cyano-phenyl)-pyrrolo[2,1-f][1,2,4]triazin-2-ylamino]-phenyl}-piperidin-1-yl)-acetamide]",–,–,< 0.1,< 0.1
"COc1ccc(Nc2ncc3ccc(-c4cc(Cl)ccc4OC)n3n2)cc1OC [Example 151, [7-(5-Chloro-2-methoxy-phenyl)-pyrrolo[2,1-f][1,2,4]triazin-2-yl]-(3,4-dimethoxy-phenyl)-amine]",0.1 to 1,< 0.1,–,–
"COCCOc1ncc2ccc(-c3ccc(S(C)(=O)=O)cc3)n2n1 [Example 197, 7-(4-Methanesulfonyl-phenyl)-2-(2-methoxy-ethoxy)-pyrrolo[2,1-f][1,2,4]triazine]",> 10,0.1 to 1,–,–
"COc1cc(C2CCN(CC(=O)N(C)C)CC2)ccc1Nc1ncc2ccc(-c3ccccc3OC)n2n1 [Example 811, 2-(4-{3-Methoxy-4-[7-(2-methoxy-phenyl)-pyrrolo[2,1-f][1,2,4]triazin-2-ylamino]-phenyl}-piperidin-1-yl)-N,N-dimethyl-acetamide]",–,–,< 0.1,0.1 to 1
"COc1ccccc1-c1ccc2cnc(Nc3cccc(OC4CCNCC4)c3)nn12 [Example 601, [7-(2-Methoxy-phenyl)-pyrrolo[2,1-f][1,2,4]triazin-2-yl]-[3-(piperidin-4-yloxy)-phenyl]-amine]",–,–,0.1 to 1,< 0.1
"CN1CCN(c2ccc(Nc3ncc4ccc(-c5cccnc5F)n4n3)cc2)CC1 [Example 1041, [7-(2-Fluoro-pyridin-3-yl)-pyrrolo[2,1-f][1,2,4]triazin-2-yl]-[4-(4-methyl-piperazin-1-yl)-phenyl]-amine]",–,–,0.1 to 1,< 0.1
COc1cc2c(cc1Nc1ncc3ccc(-c4cccc(S(=O)(=O)NC(C)(C)C)c4)n3n1)CCN(C[C@H](C)O)CC2 [Example 701],–,–,< 0.1,0.1 to 1
"COc1ccccc1-c1ccc2cnc(Nc3ccc(OC)c(N4CCOCC4)c3)nn12 [Example 394, (4-Methoxy-3-morpholin-4-yl-phenyl)-[7-(2-methoxy-phenyl)-pyrrolo[2,1-f][1,2,4]triazin-2-yl]-amine]",< 0.1,< 0.1,–,–
